The record followed here is patent US20260345555A1, “Compositions and Methods for Protecting Salivary Glands from Off-Target Radiation Damage” (University of Rochester, priority 2022, published 2026).

For this assay, the system named is Reduced glutathione in salivary gland cell clusters (SGm). Kind of assay: Glutathione assay in salivary gland tissue chip, 4 days post-radiation (15 Gy); also first screen of Selleck library at 100 μM. Particulars: for Glutathione normalized mean intensity: first screen of Selleck library at 100 μM, 15 Gy, 4 days post-radiation. Format: cell-based, mouse. From the text:
A salivary gland tissue chip was leveraged for high-content drug screening to identify novel radioprotective compounds (Song Y et al., Commun Biol., 2021, 4). The chip platform consists of an array of near-spherical microbubble (MB) cavities formed in poly(dimethylsiloxane) (PDMS). Each chip, containing ~50 MBs, affixed within wells of a 96-well plate (FIG. 1C). Primary salivary gland cell clusters (FIG. 1A), suspended in a poly(ethylene glycol) (PEG) hydrogel precursor and MMP-degradable peptide crosslinker solution together with the photoinitiator LAP, were applied to the chip allowing the clusters to deposit into the MBs (FIG. 1D). In situ polymerization of the hydrogel was achieved using long-wave, low intensity UV light. Over time, the cell clusters aggregate and proliferate to form SGm (FIG. 1C).
The glutathione assay was used to measure glutathione levels at various time points post-radiation to determine the optimal time point for detecting differences between 0 Gy and 15 Gy. Based on the data, the greatest signal separation was measured at 4 days post-irradiation (FIG. 9). This timepoint is similar to previous reports on decreases in glutathione post-radiation and was used for all experiments moving forward (Meeks L et al., Physiological Genomics, 2021, 53: 85-98).
The dose response to WR-1065 was examined to determine effective concentrations of WR-1065 to prevent the reduction of glutathione levels post-radiation. A SGm tissue chip was cultured for 4 days to allow spheres to form. The chip was then treated with WR-1065 30 minutes before and during radiation, followed by drug wash out with media 30 minutes post-radiation (FIG. 2A). This dosing scheme is consistent with the use of Amifostine clinically and with previous work. The glutathione assay was performed at 4 days post-radiation (FIG. 2A). […] Moreover, it is clinically relevant as 15-30 minutes before radiation, patients are administered Amifostine intravenously at 200 mg/m (Escobar A et al., IntechOpen, 2019, pp. 15-37; Eisbruch A, J Clin Oncol, 2011, 29: 119-121; Bardet, E. et al. Semin Oncol, 2002, 29, 57-60). Assuming an average adult body surface area of 17,000 cm^2 and a blood volume of 1.35 gallons (5.1 liters), Amifostine is administered at 300 μM (Mosteller, R. D. N Engl J Med 317, 1098 (1987)).
The glutathione and senescence assays were used to screen a library of FDA-approved drugs (Selleck Chemicals) at 100 μM. Drugs were first screened using the glutathione assay according to the timeline depicted in FIG. 2A. Any compound resulting in statistically similar glutathione levels compared to 0 Gy control was considered a hit (FIG. 4, grey circles). Hits with the glutathione assay were then tested with the senescence assay and considered a “double hit” if senescence levels were statistically similar to levels at 0 Gy (FIG. 4, black circles). […] While this hit rate is higher than many other drug screening reports (0.1-0.3%), this may be due to the statistical rigor afforded by the tissue chip format (Blanchard, C et al., Antimicrob Agents Chemother 2016, 60, 862-872; Colquhoun, J. M et al., Antibiotics (Basel) 2019, 8, 48). Additionally, phenotypic screens generally have higher hit rates than target-based screens (>1%) (Moffat, J. G et al., Nature Reviews Drug Discovery 2017, 16, 531-543; Rottman, M et al., Science 2010, 329, 1175-1180).
Mice were euthanized and the submandibular glands (SMG) were removed and chopped with a razor blade for 5 min. The tissue was then incubated in Hank's buffered salt solution (HBSS) containing 15 mM HEPES, 50 U/mL collagenase type II (Thermo Fischer 17101015), and 100 U/mL hyaluronidase (Sigma Aldrich H3506) at 37 °C for 30 min. Cells were centrifuged, then resuspended in HBSS with 15 mM HEPES and passed through 100 μm and 20 μm mesh filters to isolate clusters between 20-100 μm. The digestion protocol produces cell cluster sizes evenly distributed between 20 to 100 μm (Song, Y et al., Advanced Healthcare Materials). […]

Where a name gives a salt, the structure may show the parent alone.

Turning to `CC(C)n1c(/C=C/[C@H](O)C[C@H](O)CC(=O)O)c(-c2ccc(F)cc2)c2ccccc21` (racemic) [Fluvastatin sodium (Lescol)], the “Glutathione normalized mean intensity” value is recorded as 0.5791.

With `NC(=O)c1ncn([C@@H]2O[C@H](CO)[C@@H](O)[C@H]2O)c1N` [Acadesine], the “Glutathione normalized mean intensity” value worked out at 0.3637.

For `C=CCc1cc(OC)c(O)c(C(=O)NCCO)c1` [Alibendol], the “Glutathione normalized mean intensity” value is recorded as 0.7165.

As for `COc1ccc(CC2c3cc(OC)c(OC)cc3CC[N+]2(C)CCC(=O)OCCCCCOC(=O)CC[N+]2(C)CCc3cc(OC)c(OC)cc3C2Cc2ccc(OC)c(OC)c2)cc1OC` (centres unmarked) [Atracurium besylate], the “Glutathione normalized mean intensity” value came to 0.6611.

As for `COc1ccc(C(=O)CC(=O)c2ccc(C(C)(C)C)cc2)cc1` [Avobenzone (Parsol 1789)], the “Glutathione normalized mean intensity” value was 0.5309.

For the molecule `Nc1ncn([C@@H]2O[C@H](CO)[C@@H](O)[C@H]2O)c(=O)n1` [Azacitidine (Vidaza)], the “Glutathione normalized mean intensity” value is 0.5322.

With `CC[C@H]1OC(=O)[C@H](C)[C@@H](O[C@H]2C[C@@](C)(OC)[C@@H](O)[C@H](C)O2)[C@H](C)[C@@H](O[C@@H]2O[C@H](C)C[C@H](N(C)C)[C@H]2O)[C@](C)(O)C[C@@H](C)CN(C)[C@H](C)[C@@H](O)[C@]1(C)O` [Azithromycin (Zithromax)], the “Glutathione normalized mean intensity” value was found to be 0.8765.

As for `c1ccc(-c2ccc(C(c3ccccc3)n3ccnc3)cc2)cc1` (centres unmarked) [Bifonazole], the “Glutathione normalized mean intensity” value turned out to be 0.6115.

As to `Clc1ccc(CCC(Cn2ccnc2)Sc2c(Cl)cccc2Cl)cc1` (centres unmarked) [Butoconazole nitrate], the “Glutathione normalized mean intensity” value turned out to be 0.6197.

As to `C[C@@](Cc1ccc(O)c(O)c1)(NN)C(=O)O` [Carbidopa], the “Glutathione normalized mean intensity” value is 0.5325.

For the molecule `Oc1c(Cl)cc(Cl)c2cccnc12` [Chloroxine], the “Glutathione normalized mean intensity” value was found to be 0.1604.

As for `CN=C(NC#N)NCCSCc1nc[nH]c1C` [Cimetidine (Tagamet)], the “Glutathione normalized mean intensity” value stood at 0.9597.

As to `O=P1(N(CCCl)CCCl)NCCCO1` (centres unmarked) [Clafen (Cyclophosphamide)], the “Glutathione: Normalized mean intensity” value came to 0.5778.

For the molecule `CN(C)c1ccc(C(=C2C=CC(=[N+](C)C)C=C2)c2ccc(N(C)C)cc2)cc1` [Crystal violet], the “Glutathione normalized mean intensity” value was 0.1262.

`O=c1c(-c2ccc(O)cc2)coc2cc(O)ccc12` [Daidzein]: the “Glutathione normalized mean intensity” value is 0.5394.

As to `CN(C)[C@@H](CCOc1cccc2ccccc12)c1ccccc1` [Dapoxetine hydrochloride (Priligy)], the “Glutathione normalized mean intensity” value was determined as 0.7539.

Consider `CC(=O)OCC(=O)[C@@]12N=C(C)O[C@@H]1C[C@H]1[C@@H]3CCC4=CC(=O)C=C[C@]4(C)[C@H]3[C@@H](O)C[C@@]12C` [Deflazacort (Calcort)], for which the “Glutathione normalized mean intensity” value came to 0.5114.

With `O=C(O)Cc1ccccc1Nc1c(Cl)cccc1Cl` [Diclofenac], the “Glutathione normalized mean intensity” value was 0.334.

For `COc1ccc([C@@H]2Sc3ccccc3N(CCN(C)C)C(=O)[C@@H]2OC(C)=O)cc1` [Diltiazem HCL (Tiazac)], the “Glutathione normalized mean intensity” value is given as 0.7425.

As to `CN(C)CCOC(c1ccccc1)c1ccccc1` [Diphenhydramine HCl (Benadryl)], the “Glutathione normalized mean intensity” value was determined as 0.6149.

In the case of `OCCN(CCO)c1nc(N2CCCCC2)c2nc(N(CCO)CCO)nc(N3CCCCC3)c2n1` [Dipyridamole (Persantine)], the “Glutathione normalized mean intensity” value was found to be 0.5847.

With `O=C([O-])c1cc(=O)c2c(OCC(O)COc3cccc4oc(C(=O)[O-])cc(=O)c34)cccc2o1.[Na+].[Na+]` [Disodium Cromoglycate], the “Glutathione normalized mean intensity” value worked out at 0.6798.

On to `CCOC(=O)[C@H](CCc1ccccc1)N[C@@H](C)C(=O)N1CCC[C@H]1C(=O)O` [Enalapril maleate (Vasotec)], for which the “Glutathione normalized mean intensity” value stood at 0.8307.

As to `O=C(O)CSCC(=O)NC1CCSC1=O` (centres unmarked) [Erdosteine], the “Glutathione normalized mean intensity” value was 0.5728.

As to `CCc1cc(C(N)=S)ccn1` [Ethionamide], the “Glutathione normalized mean intensity” value is given as 0.7451.

`CC(C)OC(=O)C(C)(C)Oc1ccc(C(=O)c2ccc(Cl)cc2)cc1` [Fenofibrate (Tricor, Trilipix)]: the “Glutathione normalized mean intensity” value was determined as 0.5348.

Turning to `CC(C)C(=O)Nc1ccc([N+](=O)[O-])c(C(F)(F)F)c1` [Flutamide (Eulexin)], the “Glutathione normalized mean intensity” value came to 0.6406.

Consider `Nc1nc(O)c2ncn(COC(CO)CO)c2n1` [Ganciclovir], for which the “Glutathione normalized mean intensity” value is given as 0.5803.

Take `O=C(CCCN1CCC(O)(c2ccc(Cl)cc2)CC1)c1ccc(F)cc1` [Haloperidol (Haldol)]: the “Glutathione normalized mean intensity” value turned out to be 0.6675.

Turning to `NC(=O)NO` [Hydroxyurea (Cytodrox)], the “Glutathione normalized mean intensity” value is on record as 0.4236.

In the case of `O=c1[nH]c(=O)n([C@H]2C[C@H](O)[C@@H](CO)O2)cc1I` [Idoxuridine], the “Glutathione normalized mean intensity” value amounted to 0.7701.

Consider `O=P1(NCCCl)OCCCN1CCCl` (centres unmarked) [Ifosfamide], for which the “Glutathione: Normalized mean intensity” value came out at 0.7162.

For the molecule `Nc1nc(N)nc(-c2cc(Cl)ccc2Cl)n1` [Irsogladine], the “Glutathione normalized mean intensity” value turned out to be 0.613.

As for `NNC(=O)c1ccncc1` [Isoniazid (Tubizid)], the “Glutathione normalized mean intensity” value was 0.3683.

For the molecule `Cc1c(OCC(F)(F)F)ccnc1C[S+]([O-])c1nc2ccccc2[nH]1` (centres unmarked) [Lansoprazole], the “Glutathione: Normalized mean intensity” value was 0.6174.

`c1ccc([C@H]2CN3CCSC3=N2)cc1` [Levamisole Hydrochloride (Ergamisol)]: the “Glutathione normalized mean intensity” value worked out at 0.8181.

Consider `C[C@H]1COc2c(N3CCN(C)CC3)c(F)cc3c(=O)c(C(=O)O)cn1c23` [Levofloxacin (Levaquin)], for which the “Glutathione normalized mean intensity” value turned out to be 0.6541.

Turning to `CC1=CC(=O)c2ccccc2C1=O` [Menadione], the “Glutathione normalized mean intensity” value was 0.4363.

As for `CN(C)C(=N)N=C(N)N` [Metformin hydrochloride (Glucophage)], the “Glutathione normalized mean intensity” value was 0.6991.

With `COc1c2occc2cc2ccc(=O)oc12` [Methoxsalen (Oxsoralen)], the “Glutathione normalized mean intensity” value was found to be 0.6397.

With `COCCc1ccc(OCC(O)CNC(C)C)cc1` (centres unmarked) [Metoprolol tartrate], the “Glutathione normalized mean intensity” value was determined as 0.829.

Regarding `Cc1ncc([N+](=O)[O-])n1CCO` [Metronidazole (Flagyl)], the “Glutathione normalized mean intensity” value is 0.5627.

As to `Cc1cccc(C)c1NC(=O)CN1CCCC1=O` [Nefiracetam (Translon)], the “Glutathione normalized mean intensity” value is recorded as 0.6824.

Consider `NC(=O)c1cccnc1` [Nicotinamide (Niacinamide)], for which the “Glutathione normalized mean intensity” value stood at 0.6872.

For the molecule `CC(=O)Oc1ccccc1C(=O)Nc1ncc([N+](=O)[O-])s1` [Nitazoxanide (Alinia, Annita)], the “Glutathione: Normalized mean intensity” value is on record as 0.5996.

Consider `CNC(=C[N+](=O)[O-])NCCSCc1csc(CN(C)C)n1` [Nizatidine], for which the “Glutathione normalized mean intensity” value was 0.5754.

Take `C[C@@H]1[C@H](O)[C@@H](C)/C=C/C=C/CC/C=C/C=C/C=C/C=C/C(O[C@H]2O[C@H](C)[C@@H](O)[C@H](N)[C@@H]2O)CC2O[C@](O)(CC(O)C(O)CCC(O)CC(O)CC(O)CC(=O)O[C@H]1C)CC(O)C2C(=O)O` (some centres unmarked) [Nystatin (Mycostatin)]: the “Glutathione normalized mean intensity” value is reported as 0.3498.
